Experimental data: the kinase profiling compilation of Christmann-Franck et al. (2016)

Legend:
Assay in all cases: KINOMEscan competition binding
Conditions in all cases: compound 10.0 µM
ALK (human) = ALK (human) (UniProt Q9UM73)
CDC2L2 (human) = CDC2L2 (human) (UniProt Q9UQ88)
CDC42BPG (human) = CDC42BPG (human) (UniProt Q6DT37)
CDK15 (human) = CDK15 (human) (UniProt Q96Q40)
CDK7 (human) = CDK7 (human) (UniProt P50613)
CIT (human) = CIT (human) (UniProt O14578)
CSNK2A1 (human) = CSNK2A1 (human) (UniProt P68400)
CSNK2A2 (human) = CSNK2A2 (human) (UniProt P19784)
EGFR (human) = EGFR (human) (UniProt P00533)
[1] = test system: EGFR (human), P00533 [T790M]
ERBB3 (human) = ERBB3 (human) (UniProt P21860)
ERBB4 (human) = ERBB4 (human) (UniProt Q15303)
FLT1 (human) = FLT1 (human) (UniProt P17948)
[2] = biological target: JAK1 JH2 pseudokinase (human) (UniProt P23458)
[3] = biological target: JAK2 JH1 catalytic (human) (UniProt O60674)
LTK (human) = LTK (human) (UniProt P29376)
MAP3K11 (human) = MAP3K11 (human) (UniProt Q16584)
MAPK11 (human) = MAPK11 (human) (UniProt Q15759)
Sequence of MAPK11 (human) (Q15759 whole entry, looked up): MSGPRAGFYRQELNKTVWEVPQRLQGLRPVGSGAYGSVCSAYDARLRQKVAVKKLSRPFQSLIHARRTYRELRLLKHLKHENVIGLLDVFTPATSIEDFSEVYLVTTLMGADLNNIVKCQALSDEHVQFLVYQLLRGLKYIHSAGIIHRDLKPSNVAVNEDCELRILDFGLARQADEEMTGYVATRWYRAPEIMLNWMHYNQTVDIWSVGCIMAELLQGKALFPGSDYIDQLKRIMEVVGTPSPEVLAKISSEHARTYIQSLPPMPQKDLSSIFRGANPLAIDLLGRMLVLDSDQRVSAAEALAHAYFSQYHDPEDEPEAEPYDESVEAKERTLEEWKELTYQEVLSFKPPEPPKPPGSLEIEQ

MAPK15 (human) = MAPK15 (human) (UniProt Q8TD08)
MAPK3 (human) = MAPK3 (human) (UniProt P27361)
MAPK6 (human) = MAPK6 (human) (UniProt Q16659)
Sequence of MAPK6 (human) (Q16659 whole entry, looked up): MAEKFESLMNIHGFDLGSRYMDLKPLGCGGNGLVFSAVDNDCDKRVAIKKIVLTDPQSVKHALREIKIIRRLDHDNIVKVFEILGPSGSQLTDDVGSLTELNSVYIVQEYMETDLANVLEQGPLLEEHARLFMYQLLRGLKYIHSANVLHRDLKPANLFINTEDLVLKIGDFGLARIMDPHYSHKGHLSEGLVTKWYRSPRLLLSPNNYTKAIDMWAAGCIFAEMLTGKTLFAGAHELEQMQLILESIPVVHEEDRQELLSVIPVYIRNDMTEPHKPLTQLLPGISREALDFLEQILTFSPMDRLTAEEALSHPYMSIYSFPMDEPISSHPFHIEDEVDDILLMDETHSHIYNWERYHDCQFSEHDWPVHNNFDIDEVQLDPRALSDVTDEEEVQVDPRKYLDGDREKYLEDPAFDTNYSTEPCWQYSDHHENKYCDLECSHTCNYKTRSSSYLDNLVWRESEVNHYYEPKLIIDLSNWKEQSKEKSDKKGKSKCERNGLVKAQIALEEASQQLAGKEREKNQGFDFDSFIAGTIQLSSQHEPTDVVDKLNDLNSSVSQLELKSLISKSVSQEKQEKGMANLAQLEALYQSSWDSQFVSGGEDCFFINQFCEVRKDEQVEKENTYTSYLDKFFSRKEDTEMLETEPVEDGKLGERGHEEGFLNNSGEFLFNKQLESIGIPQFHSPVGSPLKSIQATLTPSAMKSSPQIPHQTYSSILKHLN

MAPKAPK5 (human) = MAPKAPK5 (human) (UniProt Q8IW41)
NEK6 (human) = NEK6 (human) (UniProt Q9HC98)
NEK7 (human) = NEK7 (human) (UniProt Q8TDX7)
NTRK1 (human) = NTRK1 (human) (UniProt P04629)
NTRK3 (human) = NTRK3 (human) (UniProt Q16288)
PAK1 (human) = PAK1 (human) (UniProt Q13153)
PKMYT1 (human) = PKMYT1 (human) (UniProt Q99640)
PLK2 (human) = PLK2 (human) (UniProt Q9NYY3)
Sequence of PLK2 (human) (Q9NYY3 whole entry, looked up): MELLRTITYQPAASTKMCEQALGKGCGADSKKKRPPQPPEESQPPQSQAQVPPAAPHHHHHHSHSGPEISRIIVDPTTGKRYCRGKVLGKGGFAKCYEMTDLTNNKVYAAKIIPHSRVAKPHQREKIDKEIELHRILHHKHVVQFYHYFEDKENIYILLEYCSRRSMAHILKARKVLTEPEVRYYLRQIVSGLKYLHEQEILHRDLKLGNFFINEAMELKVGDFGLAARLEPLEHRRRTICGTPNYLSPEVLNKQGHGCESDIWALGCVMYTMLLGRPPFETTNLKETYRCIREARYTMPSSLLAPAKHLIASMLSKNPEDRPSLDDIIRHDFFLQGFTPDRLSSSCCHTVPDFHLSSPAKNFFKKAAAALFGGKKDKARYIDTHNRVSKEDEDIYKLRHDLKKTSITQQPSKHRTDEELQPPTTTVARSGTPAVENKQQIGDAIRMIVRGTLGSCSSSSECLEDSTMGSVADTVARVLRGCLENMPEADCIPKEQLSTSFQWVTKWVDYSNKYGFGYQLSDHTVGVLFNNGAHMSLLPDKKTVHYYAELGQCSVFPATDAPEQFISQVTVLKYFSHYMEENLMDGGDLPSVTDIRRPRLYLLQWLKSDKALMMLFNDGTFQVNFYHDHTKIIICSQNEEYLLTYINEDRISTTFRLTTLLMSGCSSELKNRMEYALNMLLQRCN

RPS6KA1 KD1 (human) = RPS6KA1 KD1 (human) (UniProt Q15418)
RPS6KA4 KD1 (human) = RPS6KA4 KD1 (human) (UniProt O75676)
RPS6KA5 KD2 (human) = RPS6KA5 KD2 (human) (UniProt O75582)
STK17B (human) = STK17B (human) (UniProt O94768)
Sequence of STK17B (human) (O94768 whole entry, looked up): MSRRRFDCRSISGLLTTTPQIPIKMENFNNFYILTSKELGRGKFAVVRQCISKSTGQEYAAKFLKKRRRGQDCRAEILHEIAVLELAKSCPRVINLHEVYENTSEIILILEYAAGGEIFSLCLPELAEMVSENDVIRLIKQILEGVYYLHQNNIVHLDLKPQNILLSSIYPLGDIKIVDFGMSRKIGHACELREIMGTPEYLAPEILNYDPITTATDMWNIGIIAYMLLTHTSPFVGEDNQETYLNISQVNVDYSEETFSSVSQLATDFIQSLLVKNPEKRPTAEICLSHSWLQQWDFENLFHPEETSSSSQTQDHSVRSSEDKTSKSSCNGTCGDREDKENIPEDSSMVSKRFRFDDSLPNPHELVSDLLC

STK4 (human) = STK4 (human) (UniProt Q13043)
Sequence of STK4 (human) (Q13043 whole entry, looked up): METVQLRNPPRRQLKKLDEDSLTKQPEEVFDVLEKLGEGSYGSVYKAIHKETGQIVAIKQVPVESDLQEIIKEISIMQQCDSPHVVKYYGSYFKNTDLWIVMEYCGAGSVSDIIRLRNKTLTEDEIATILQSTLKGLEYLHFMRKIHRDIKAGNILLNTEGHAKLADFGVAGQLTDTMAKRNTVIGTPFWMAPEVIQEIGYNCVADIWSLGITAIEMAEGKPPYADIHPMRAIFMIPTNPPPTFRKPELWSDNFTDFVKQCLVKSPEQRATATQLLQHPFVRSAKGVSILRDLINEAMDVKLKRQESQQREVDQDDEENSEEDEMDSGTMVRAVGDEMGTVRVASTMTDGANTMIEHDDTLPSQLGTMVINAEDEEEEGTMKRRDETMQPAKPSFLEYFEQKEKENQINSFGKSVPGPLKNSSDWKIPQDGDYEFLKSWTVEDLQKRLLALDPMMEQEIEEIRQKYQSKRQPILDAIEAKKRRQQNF

SYK (human) = SYK (human) (UniProt P43405)
ABL1 (human) = ABL1 (human) (UniProt P00519)
[4] = test system: ABL1 (human), P00519 [H396P]

Sequence of CDK7 (human) (P50613 whole entry, looked up): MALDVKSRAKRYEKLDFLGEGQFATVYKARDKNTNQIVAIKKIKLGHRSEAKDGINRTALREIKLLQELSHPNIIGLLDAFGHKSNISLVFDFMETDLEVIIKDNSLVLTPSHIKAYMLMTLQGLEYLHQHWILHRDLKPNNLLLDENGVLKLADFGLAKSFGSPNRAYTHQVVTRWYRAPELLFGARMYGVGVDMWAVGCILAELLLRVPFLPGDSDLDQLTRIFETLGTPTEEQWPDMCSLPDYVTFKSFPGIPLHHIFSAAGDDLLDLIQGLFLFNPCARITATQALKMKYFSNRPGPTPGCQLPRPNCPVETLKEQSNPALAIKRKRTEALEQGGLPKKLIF
Sequence of CIT (human) (O14578 whole entry, looked up): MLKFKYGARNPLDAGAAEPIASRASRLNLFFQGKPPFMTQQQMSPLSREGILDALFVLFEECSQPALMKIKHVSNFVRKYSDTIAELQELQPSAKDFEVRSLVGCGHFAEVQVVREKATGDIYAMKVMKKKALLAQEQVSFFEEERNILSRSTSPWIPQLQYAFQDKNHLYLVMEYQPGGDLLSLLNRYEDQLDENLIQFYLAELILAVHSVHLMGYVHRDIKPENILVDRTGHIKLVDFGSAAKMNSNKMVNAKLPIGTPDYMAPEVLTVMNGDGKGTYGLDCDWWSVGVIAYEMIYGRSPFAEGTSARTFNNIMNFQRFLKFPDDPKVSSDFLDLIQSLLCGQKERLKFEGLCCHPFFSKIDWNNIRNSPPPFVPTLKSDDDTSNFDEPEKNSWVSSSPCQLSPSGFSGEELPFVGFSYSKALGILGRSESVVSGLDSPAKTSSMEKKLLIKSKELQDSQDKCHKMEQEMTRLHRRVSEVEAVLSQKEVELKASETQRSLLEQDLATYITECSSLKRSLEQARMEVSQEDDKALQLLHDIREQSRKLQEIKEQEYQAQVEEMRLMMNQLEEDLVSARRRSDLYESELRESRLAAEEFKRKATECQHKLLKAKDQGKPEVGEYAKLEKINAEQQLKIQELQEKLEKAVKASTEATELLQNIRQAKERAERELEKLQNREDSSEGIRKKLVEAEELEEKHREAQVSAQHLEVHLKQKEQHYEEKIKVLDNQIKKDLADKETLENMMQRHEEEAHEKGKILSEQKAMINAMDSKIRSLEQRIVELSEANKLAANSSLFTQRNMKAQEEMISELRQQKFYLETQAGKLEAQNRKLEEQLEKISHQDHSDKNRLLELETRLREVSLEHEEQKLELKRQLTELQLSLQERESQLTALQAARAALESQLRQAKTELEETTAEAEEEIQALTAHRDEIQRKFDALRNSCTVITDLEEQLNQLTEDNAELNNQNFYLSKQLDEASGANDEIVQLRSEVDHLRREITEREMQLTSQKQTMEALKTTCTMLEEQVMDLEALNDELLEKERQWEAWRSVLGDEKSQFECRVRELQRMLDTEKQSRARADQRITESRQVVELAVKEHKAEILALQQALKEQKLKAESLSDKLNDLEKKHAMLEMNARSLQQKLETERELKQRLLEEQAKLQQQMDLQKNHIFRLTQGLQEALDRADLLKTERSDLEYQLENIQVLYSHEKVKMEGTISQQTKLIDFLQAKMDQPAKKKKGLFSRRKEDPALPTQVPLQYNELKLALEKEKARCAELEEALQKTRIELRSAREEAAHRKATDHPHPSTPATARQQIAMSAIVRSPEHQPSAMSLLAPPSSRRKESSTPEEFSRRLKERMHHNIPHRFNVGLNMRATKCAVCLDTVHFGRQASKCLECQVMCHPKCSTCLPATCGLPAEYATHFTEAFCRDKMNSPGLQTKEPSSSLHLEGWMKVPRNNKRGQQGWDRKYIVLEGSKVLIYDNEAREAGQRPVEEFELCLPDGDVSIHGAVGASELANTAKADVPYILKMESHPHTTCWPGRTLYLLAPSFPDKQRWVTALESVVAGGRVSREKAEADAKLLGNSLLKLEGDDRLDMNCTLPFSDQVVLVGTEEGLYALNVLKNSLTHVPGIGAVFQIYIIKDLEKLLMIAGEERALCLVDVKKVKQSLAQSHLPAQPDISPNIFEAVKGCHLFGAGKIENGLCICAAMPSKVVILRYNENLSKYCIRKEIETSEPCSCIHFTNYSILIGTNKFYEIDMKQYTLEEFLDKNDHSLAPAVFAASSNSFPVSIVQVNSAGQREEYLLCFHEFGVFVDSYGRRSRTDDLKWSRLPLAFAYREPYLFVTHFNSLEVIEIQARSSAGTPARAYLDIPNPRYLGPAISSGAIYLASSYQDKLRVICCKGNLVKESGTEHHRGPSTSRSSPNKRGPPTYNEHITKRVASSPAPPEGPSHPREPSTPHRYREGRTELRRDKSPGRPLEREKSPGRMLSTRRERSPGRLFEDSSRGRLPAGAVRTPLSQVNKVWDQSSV

COc1ccc(N(C(=O)Oc2c(C)cccc2C)c2ccnc(Nc3ccc(N4CCN(C)CC4)cc3)n2)c(OC)c1
kinase still bound, per cent of control (ALK (human)): 0.35% | kinase still bound, per cent of control (CDC2L2 (human)): 42% | kinase still bound, per cent of control (CDC42BPG (human)): 0.45% | kinase still bound, per cent of control (CDK15 (human)): 94% | kinase still bound, per cent of control (CDK7 (human)): 100% | kinase still bound, per cent of control (CIT (human)): 3.8% | kinase still bound, per cent of control (CSNK2A1 (human)): 66% | kinase still bound, per cent of control (CSNK2A2 (human)): 95% | kinase still bound, per cent of control (EGFR (human)): 0.4% | kinase still bound, per cent of control [1]: 2.2% | kinase still bound, per cent of control (ERBB3 (human)): 0% | kinase still bound, per cent of control (ERBB4 (human)): 0.75% | kinase still bound, per cent of control (FLT1 (human)): 11% | kinase still bound, per cent of control [2]: 84% | kinase still bound, per cent of control [3]: 35% | kinase still bound, per cent of control (LTK (human)): 1.2% | kinase still bound, per cent of control (MAP3K11 (human)): 8.8% | kinase still bound, per cent of control (MAPK11 (human)): 11% | kinase still bound, per cent of control (MAPK15 (human)): 76% | kinase still bound, per cent of control (MAPK3 (human)): 100% | kinase still bound, per cent of control (MAPK6 (human)): 100% | kinase still bound, per cent of control (MAPKAPK5 (human)): 100% | kinase still bound, per cent of control (NEK6 (human)): 96% | kinase still bound, per cent of control (NEK7 (human)): 80% | kinase still bound, per cent of control (NTRK1 (human)): 78% | kinase still bound, per cent of control (NTRK3 (human)): 100% | kinase still bound, per cent of control (PAK1 (human)): 6.8% | kinase still bound, per cent of control (PKMYT1 (human)): 100% | kinase still bound, per cent of control (PLK2 (human)): 100% | kinase still bound, per cent of control (RPS6KA1 KD1 (human)): 58% | kinase still bound, per cent of control (RPS6KA4 KD1 (human)): 100% | kinase still bound, per cent of control (RPS6KA5 KD2 (human)): 93% | kinase still bound, per cent of control (STK17B (human)): 100% | kinase still bound, per cent of control (STK4 (human)): 42% | kinase still bound, per cent of control (SYK (human)): 1.4%

CCN(CC)CCCCNc1ncc2cc(-c3cc(OC)cc(OC)c3)c(NC(=O)NC(C)(C)C)nc2n1
kinase still bound, per cent of control (ABL1 (human)): 100% | kinase still bound, per cent of control [4]: 100% | kinase still bound, per cent of control (ALK (human)): 100% | kinase still bound, per cent of control (CDC2L2 (human)): 100% | kinase still bound, per cent of control (CDC42BPG (human)): 100% | kinase still bound, per cent of control (CDK7 (human)): 100% | kinase still bound, per cent of control (CIT (human)): 100% | kinase still bound, per cent of control (CSNK2A1 (human)): 100% | kinase still bound, per cent of control (CSNK2A2 (human)): 100% | kinase still bound, per cent of control (ERBB4 (human)): 100% | kinase still bound, per cent of control (FLT1 (human)): 8% | kinase still bound, per cent of control [2]: 100% | kinase still bound, per cent of control [3]: 100% | kinase still bound, per cent of control (LTK (human)): 100% | kinase still bound, per cent of control (MAP3K11 (human)): 100% | kinase still bound, per cent of control (MAPK11 (human)): 100% | kinase still bound, per cent of control (MAPK15 (human)): 100% | kinase still bound, per cent of control (MAPK3 (human)): 100% | kinase still bound, per cent of control (MAPK6 (human)): 100% | kinase still bound, per cent of control (MAPKAPK5 (human)): 100% | kinase still bound, per cent of control (NEK6 (human)): 100% | kinase still bound, per cent of control (NEK7 (human)): 100% | kinase still bound, per cent of control (NTRK1 (human)): 100% | kinase still bound, per cent of control (NTRK3 (human)): 100% | kinase still bound, per cent of control (PAK1 (human)): 100% | kinase still bound, per cent of control (PKMYT1 (human)): 100% | kinase still bound, per cent of control (RPS6KA1 KD1 (human)): 100% | kinase still bound, per cent of control (RPS6KA4 KD1 (human)): 100% | kinase still bound, per cent of control (RPS6KA5 KD2 (human)): 100% | kinase still bound, per cent of control (STK17B (human)): 100% | kinase still bound, per cent of control (STK4 (human)): 100% | kinase still bound, per cent of control (SYK (human)): 100%

CCN1CCN(C(=O)Cc2ccc(Nc3ncc(F)c(Nc4ccc(C(=O)Nc5ccccc5Cl)cc4)n3)cc2)CC1
kinase still bound, per cent of control (ALK (human)): 22% | kinase still bound, per cent of control (CDC2L2 (human)): 95% | kinase still bound, per cent of control (CDC42BPG (human)): 66% | kinase still bound, per cent of control (CDK15 (human)): 64% | kinase still bound, per cent of control (CDK7 (human)): 22% | kinase still bound, per cent of control (CIT (human)): 27% | kinase still bound, per cent of control (CSNK2A1 (human)): 18% | kinase still bound, per cent of control (CSNK2A2 (human)): 7.8% | kinase still bound, per cent of control (EGFR (human)): 26% | kinase still bound, per cent of control [1]: 13% | kinase still bound, per cent of control (ERBB3 (human)): 45% | kinase still bound, per cent of control (ERBB4 (human)): 53% | kinase still bound, per cent of control (FLT1 (human)): 9.6% | kinase still bound, per cent of control [2]: 3% | kinase still bound, per cent of control [3]: 76% | kinase still bound, per cent of control (LTK (human)): 32% | kinase still bound, per cent of control (MAP3K11 (human)): 4.6% | kinase still bound, per cent of control (MAPK11 (human)): 81% | kinase still bound, per cent of control (MAPK15 (human)): 54% | kinase still bound, per cent of control (MAPK3 (human)): 100% | kinase still bound, per cent of control (MAPK6 (human)): 21% | kinase still bound, per cent of control (MAPKAPK5 (human)): 100% | kinase still bound, per cent of control (NEK6 (human)): 8.4% | kinase still bound, per cent of control (NEK7 (human)): 2.6% | kinase still bound, per cent of control (NTRK1 (human)): 19% | kinase still bound, per cent of control (NTRK3 (human)): 78% | kinase still bound, per cent of control (PAK1 (human)): 53% | kinase still bound, per cent of control (PKMYT1 (human)): 100% | kinase still bound, per cent of control (PLK2 (human)): 88% | kinase still bound, per cent of control (RPS6KA1 KD1 (human)): 45% | kinase still bound, per cent of control (RPS6KA4 KD1 (human)): 100% | kinase still bound, per cent of control (RPS6KA5 KD2 (human)): 66% | kinase still bound, per cent of control (STK17B (human)): 13% | kinase still bound, per cent of control (STK4 (human)): 98% | kinase still bound, per cent of control (SYK (human)): 33%

COc1cc2ncnc(-n3nc(-c4ccccn4)nc3N)c2cc1OC
kinase still bound, per cent of control (ALK (human)): 45% | kinase still bound, per cent of control (CDC2L2 (human)): 100% | kinase still bound, per cent of control (CDC42BPG (human)): 96% | kinase still bound, per cent of control (CDK15 (human)): 88% | kinase still bound, per cent of control (CDK7 (human)): 5.4% | kinase still bound, per cent of control (CIT (human)): 30% | kinase still bound, per cent of control (CSNK2A1 (human)): 4.4% | kinase still bound, per cent of control (CSNK2A2 (human)): 5.2% | kinase still bound, per cent of control (EGFR (human)): 52% | kinase still bound, per cent of control [1]: 67% | kinase still bound, per cent of control (ERBB3 (human)): 9% | kinase still bound, per cent of control (ERBB4 (human)): 59% | kinase still bound, per cent of control (FLT1 (human)): 48% | kinase still bound, per cent of control [2]: 0.4% | kinase still bound, per cent of control [3]: 26% | kinase still bound, per cent of control (LTK (human)): 24% | kinase still bound, per cent of control (MAP3K11 (human)): 63% | kinase still bound, per cent of control (MAPK11 (human)): 8.2% | kinase still bound, per cent of control (MAPK15 (human)): 0.55% | kinase still bound, per cent of control (MAPK3 (human)): 67% | kinase still bound, per cent of control (MAPK6 (human)): 85% | kinase still bound, per cent of control (MAPKAPK5 (human)): 100% | kinase still bound, per cent of control (NEK6 (human)): 0.15% | kinase still bound, per cent of control (NEK7 (human)): 1.4% | kinase still bound, per cent of control (NTRK1 (human)): 48% | kinase still bound, per cent of control (NTRK3 (human)): 100% | kinase still bound, per cent of control (PAK1 (human)): 70% | kinase still bound, per cent of control (PKMYT1 (human)): 63% | kinase still bound, per cent of control (PLK2 (human)): 13% | kinase still bound, per cent of control (RPS6KA1 KD1 (human)): 33% | kinase still bound, per cent of control (RPS6KA4 KD1 (human)): 9.9% | kinase still bound, per cent of control (RPS6KA5 KD2 (human)): 33% | kinase still bound, per cent of control (STK17B (human)): 9.4% | kinase still bound, per cent of control (STK4 (human)): 61% | kinase still bound, per cent of control (SYK (human)): 24%
